Source: patent US9382306B2, “Octapeptide compounds derived from somatostatin and the therapeutic use thereof” (IPSEN PHARMA S.A.S., priority 2008, dated 2016)
Values joined by “and” are separate entries in the source; they are usually repeats but may differ in a detail not shown here. Equal entries are not always repeated. Bridge positions count the residues as written; N and C are the ends. Square brackets hold non-standard residues; d marks the D form. Peptide text beside a SMILES is read from it. ξ: configuration not given here. dPhe(4-NO2) = N[C@H](Cc1ccc([N+](=O)[O-])cc1)C(=O)O; dPhe(3,5-F2) = N[C@H](Cc1cc(F)cc(F)c1)C(=O)O; dPhe(4-Br) = N[C@H](Cc1ccc(Br)cc1)C(=O)O; dPhe(2-Br) = N[C@H](Cc1ccccc1Br)C(=O)O; dPhe(3-F) = N[C@H](Cc1cccc(F)c1)C(=O)O; 2Nal = N[C@@H](Cc1ccc2ccccc2c1)C(=O)O; d2Nal = N[C@H](Cc1ccc2ccccc2c1)C(=O)O; dThr(3ξ) = CC(O)[C@@H](N)C(=O)O; Thr(3ξ) = CC(O)[C@H](N)C(=O)O

Experiments:
[1] = target: T1, somatostatin receptors sub-type 2 (Homo sapiens, UniProt P30874); assay: Affinity for somatostatin receptors: inhibition of [125I-Tyr11]SRIF-14 binding to membranes of transfected CHO-K1 cells; details: competitive inhibition of [125I-Tyr11]SRIF-14 binding, 37° C.
T1 construct: expressed in transfected cells; membrane preparations
Experimental: (§1) The affinity of the compounds of the invention for the somatostatin receptors is determined by measurement of the inhibition of the bond of [125I-Tyr11]SRIF-14 to membrane preparations of transfected CHO-K1 cells.
(§2) The CHO-K1 cells expressing in a stable fashion each of the sub-types of somatostatin receptors are collected with 0.5 mM of EDTA and centrifuged at 500 g for 5 minutes at 4° C. The pellet is re-suspended in phosphate buffer (PBS) and centrifuged at 500 g for 5 minutes at 4° C. The pellet is re-suspended in Tris 50 mM buffer at pH 7.4 and centrifuged at 500 g for 5 minutes at 4° C. The cells are lyzed by sonication and centrifuged at 39,000 g for 10 minutes. The pellet is re-suspended in Tris 50 mM buffer at pH 7.4, an aliquot is removed for assaying the proteins and the remainder is centrifuged at 50,000 g for 10 minutes. The membranes obtained in this last pellet are stored at −80° C.
(§3) Measurement of the competitive inhibition of the bond of [125I-Tyr11]SRIF-14 (Perkin Elmer) on each of the sub-types of somatostatin receptors is carried out in duplicate in 96-well polypropylene plates. The cell membranes (5 to 20 µg of proteins/well) are incubated with [125I-Tyr11]SRIF-14 (0.05 to 0.1 nM) for 50 to 90 minutes at 37° C. (conditions dependent on the sub-type of receptor) in a HEPES buffer medium 50 mM pH 7.4, comprising 0.2% bovine serum albumin (BSA), MgCl2 5 mM, Trasylol 200 KIU/mL, Bacitracin 0.02 mg/mL, phenylmethylsulphonyl fluoride 0.02 mg/mL.
(§4) The bound [125I-Tyr11]SRIF-14 is separated from the free [125I-Tyr11]SRIF-14 by filtration through GF/C glass fibre plates (Unifilter, Perkin Elmer) pre-impregnated with 0.1% polyethylenimine (P.E.I.), using a Filtermate 96 (Perkin Elmer). The filters are washed with Tris-HCl buffer 50 mM, pH 7.4 at 4° C. and the radioactivity present is determined using a counter (TopCount, Perkin Elmer).
(§5) The data are analyzed by computer-assisted non-linear regression using XLfit 4.2 (IDBS) software.

[2] = target: T2, somatostatin receptors sub-type 5 (Homo sapiens, UniProt P35346); assay: as above; details: competitive inhibition of [125I-Tyr11]SRIF-14 binding, 37° C.
T2 construct: expressed in transfected cells; membrane preparations
Experimental: as §1, §2, §3, §4, §5

[3] = Self-assembly study: putting peptides in solution in water, macroscopic, ATR-FTIR, TEM and SAXS analysis; type: physicochemical; details: 3 to 15% by mass of peptide in water; form and diameter of the self-assembled structure, or soluble / insoluble
Text: The procedure used comprises three stages: putting the peptides in solution and macroscopic analysis; spectroscopic and microscopic analyses of the structures formed and by small-angle X-ray scattering (SAXS) analyses.
The first stage of the characterization of the derivatives is the production of a range of concentrations from 3 to 15% by mass of peptide in water. Gelling of the solution indicates the presence of self-assembled structures which can be nanotubes but can also be fibres or other self-organised structures.
The object of this stage is to verify the presence of self-assembled structures, to characterize their self-assembly and to visualize them by microscopy.
Infrared spectroscopy makes it possible to obtain information on the method of stacking the peptides in the self-assemblies. The amide band spectrum, reflecting the absorption spectra of the carbonyl functions of the peptide backbone, gives information on the type of hydrogen bond in which these groups are involved (H bonds leading to the formation of the […], a helix or also a loop or random conformation) and consequently on the secondary and tertiary structure of the peptides in solution and self-assembled. The attenuated total reflection technique (ATR-FTIR) uses a crystal on which the solid or liquid sample is deposited. The infrared light is guided through this crystal at an angle which allows it to be reflected several times inside the crystal, which increases the sensitivity of the technique. Due to the performance of this device, it is then possible perform measurements on relatively dilute solutions. The beam penetrates a few microns into the sample deposited on the crystal, which means that only the molecules/structures which are deposited on the surface of the crystal are analyzed. Moreover, this technique is non-destructive.
The assembled structures are then visualized by transmission electron microscopy (TEM). This very powerful technique, allowing magnifications greater than 500,000 times, is one of the few techniques capable of visualizing structures on the nanometric scale. The sample is subjected to an electron beam. The visualization of the transmitted beam is produced either by a photoluminescent screen, or by a CCD camera. The sample in the microscope being under vacuum, it is samples dried after staining with uranyl salts in order to increase contrast which are observed.
The peptide in solution is firstly deposited on a copper grid covered with a film of carbon. After deposition of the materiel, the excess liquid is eliminated. In the same way, the solution of colorant, in our case uranyl acetate, is deposited on the grid, the excess is eliminated and the grid is dried in the open air. It can then be introduced into the microscope.
The samples, liquids or gels, are introduced into a capillary column and subjected to a monochromatic flow of X-rays. The intensity diffused is measured as a function of the scattering angle with respect to the incident angle.
The diffusion patterns thus obtained must be the subject of a correlation with a close theoretical model of the structures present in the sample. In the case where the peptides have self-assembled in the form of hollow nanotubes, the modelling of the experimental data with the theoretical diffusion produced by infinitely long hollow columns makes it possible to determine with precision the diameter of the columns and to estimate their wall thickness (Valery et al. in Biophysical journal, 2004, 86(4), 2484-2501 and Proc. Natl. Acad. Sci., 2003, 100(18) 10258-10262). For polydisperse, nanotubular, fibrilar, micellar or lamellar self-assemblies, it is the correlation of the spectroscopic, microscopic and XR scattering data which makes it possible to estimate a size range for the objects observed.

T2 sequence (P35346 whole entry): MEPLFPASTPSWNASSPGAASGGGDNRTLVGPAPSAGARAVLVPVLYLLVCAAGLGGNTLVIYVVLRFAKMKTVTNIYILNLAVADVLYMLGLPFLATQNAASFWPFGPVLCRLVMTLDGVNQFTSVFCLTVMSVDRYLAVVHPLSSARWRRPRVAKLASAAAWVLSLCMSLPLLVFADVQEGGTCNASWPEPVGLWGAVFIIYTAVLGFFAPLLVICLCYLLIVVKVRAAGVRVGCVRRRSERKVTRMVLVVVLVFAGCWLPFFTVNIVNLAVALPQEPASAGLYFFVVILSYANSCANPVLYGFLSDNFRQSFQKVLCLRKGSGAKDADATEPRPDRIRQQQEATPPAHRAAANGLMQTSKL
T1 sequence (P30874 whole entry): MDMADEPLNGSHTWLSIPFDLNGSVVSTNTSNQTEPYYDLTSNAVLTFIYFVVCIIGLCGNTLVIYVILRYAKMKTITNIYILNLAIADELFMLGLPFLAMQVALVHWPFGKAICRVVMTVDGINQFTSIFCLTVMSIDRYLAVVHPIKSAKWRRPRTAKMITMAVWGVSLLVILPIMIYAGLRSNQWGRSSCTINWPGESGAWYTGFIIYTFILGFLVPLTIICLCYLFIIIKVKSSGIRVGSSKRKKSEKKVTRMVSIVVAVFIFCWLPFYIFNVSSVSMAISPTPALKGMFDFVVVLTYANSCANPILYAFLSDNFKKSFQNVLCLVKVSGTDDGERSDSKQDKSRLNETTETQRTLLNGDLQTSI

| Ki [1] [µM] | Ki [2] [µM] | SMILES | Assembly [3] |
| --- | --- | --- | --- |
| ≤ 0.7 | ≤ 5 | CC(C)[C@@H]1NC(=O)[C@H](CCCCN)NC(=O)[C@@H](c2ccccc2)NC(=O)[C@H](Cc2ccc(O)cc2)NC(=O)[C@@H](NC(=O)[C@H](N)Cc2ccc3ccccc3c2)CSSC[C@@H](C(=O)N[C@H](C(N)=O)C(C)O)NC1=O (stereo partly drawn) [Example 10, H-D-2-Nal^1-cyclo(Cys^2-Tyr^3-D-Phg^4-Lys^5-Val^6-Cys^7)-Thr^8-NH2.2 CH3COOH] | self-assembled fibres |
| – | – | COCCOCCOc1ccc(C[C@H]2NC(=O)[C@H](Cc3ccc(O)cc3)NC(=O)[C@@H](NC(=O)[C@H](N)Cc3ccc4ccccc4c3)CSSC[C@@H](C(=O)N[C@H](C(N)=O)[C@@H](C)O)NC(=O)[C@H](C(C)C)NC(=O)[C@H](CCCCN)NC2=O)cc1 [Example 22, H-D-2-Nal^1-cyclo(Cys^2-Tyr^3-p-2-(2-methoxyethoxy)ethoxy)-D-Phe^4-Lys^5-Val^6-Cys^7)-Thr^8-NH2].2 CH3COOH] | 17.4 nm monodisperse nanotube |
| ≤ 0.005 | ≤ 0.1 | CC(C)[C@@H]1NC(=O)[C@H](CCCCN)NC(=O)[C@@H](Cc2ccc(Br)cc2)NC(=O)[C@H](Cc2ccc(O)cc2)NC(=O)[C@@H](NC(=O)[C@H](N)Cc2ccc3ccccc3c2)CSSC[C@@H](C(=O)N[C@H](C(N)=O)C(C)O)NC1=O (stereo partly drawn) [Example 12, H-D-2-Nal^1-cyclo(Cys^2-Tyr^3-p-Br-D-Phe^4-Lys^5-Val^6-Cys^7)-Thr^8-NH2.2 CH3COOH] (H-[d2Nal]CY[dPhe(4-Br)]KVC[Thr(3ξ)]-NH2; disulfide 2-7) | monodisperse peptide nanotubes and 17 nm monodisperse nanotube |
| ≤ 0.005 | ≤ 1 | CC(C)[C@@H]1NC(=O)[C@H](CCCCN)NC(=O)[C@@H](Cc2ccc([N+](=O)[O-])cc2)NC(=O)[C@H](Cc2ccc(O)cc2)NC(=O)[C@@H](NC(=O)[C@H](N)Cc2ccc3ccccc3c2)CSSC[C@@H](C(=O)N[C@H](C(N)=O)C(C)O)NC1=O (stereo partly drawn) [Example 20, H-D-2-Nal^1-cyclo(Cys^2-Tyr^3-p-nitro-D-Phe^4-Lys^5-Val^6-Cys^7)-Thr^8-NH2.2 CH3COOH] (H-[d2Nal]CY[dPhe(4-NO2)]KVC[Thr(3ξ)]-NH2; disulfide 2-7) | monodisperse peptide nanotubes and 17.6 nm monodisperse nanotube |
| ≤ 0.005 | ≤ 0.1 | CC(C)[C@@H]1NC(=O)[C@H](CCCCN)NC(=O)[C@@H](Cc2ccccc2Br)NC(=O)[C@H](Cc2ccc(O)cc2)NC(=O)[C@@H](NC(=O)[C@H](N)Cc2ccc3ccccc3c2)CSSC[C@@H](C(=O)N[C@H](C(N)=O)C(C)O)NC1=O (stereo partly drawn) [Example 19, H-D-2-Nal^1-cyclo(Cys^2-Tyr^3-o-Br-D-Phe^4-Lys^5-Val^6-Cys^7)-Thr^8-NH2.2 CH3COOH] (H-[d2Nal]CY[dPhe(2-Br)]KVC[Thr(3ξ)]-NH2; disulfide 2-7) | – |
| ≤ 0.05 | ≤ 0.1 | CC(C)[C@@H]1NC(=O)[C@H](CCCCN)NC(=O)[C@@H](Cc2ccc(-c3ccccc3)cc2)NC(=O)[C@H](Cc2ccc(O)cc2)NC(=O)[C@@H](NC(=O)[C@H](N)Cc2ccc3ccccc3c2)CSSC[C@@H](C(=O)N[C@H](C(N)=O)C(C)O)NC1=O (stereo partly drawn) [Example 21, H-D-2-Nal^1-cyclo(Cys^2-Tyr^3-p-Ph-D-Phe^4-Lys^5-Val^6-Cys^7)-Thr^8-NH2.2 CH3COOH] | insoluble |
| ≤ 0.7 | ≤ 5 | CC(C)[C@@H]1NC(=O)[C@H](CCCCN)NC(=O)[C@@H](C(C)C)NC(=O)[C@H](Cc2ccc(O)cc2)NC(=O)[C@@H](NC(=O)[C@H](N)Cc2ccc3ccccc3c2)CSSC[C@@H](C(=O)N[C@H](C(N)=O)C(C)O)NC1=O (stereo partly drawn) [Example 5, H-D-2-Nal^1-cyclo(Cys^2Tyr^3-D-Val^4-Lys^5-Val^6Cys^7)-Thr^8-NH2.2 CH3COOH] (H-[d2Nal]CY[dV]KVC[Thr(3ξ)]-NH2; disulfide 2-7) | soluble |
| ≤ 0.005 | ≤ 0.1 | CC(C)[C@@H]1NC(=O)[C@H](CCCCN)NC(=O)[C@@H](Cc2cc(F)cc(F)c2)NC(=O)[C@H](Cc2ccc(O)cc2)NC(=O)[C@@H](NC(=O)[C@H](N)Cc2ccc3ccccc3c2)CSSC[C@@H](C(=O)N[C@H](C(N)=O)C(C)O)NC1=O (stereo partly drawn) [Example 17, H-D-2-Nal^1-cyclo(Cys^2-Tyr^3-3,5-diF-D-Phe^4-Lys^5-Val^6-Cys^7)-Thr^8-NH2.2 CH3COOH] (H-[d2Nal]CY[dPhe(3,5-F2)]KVC[Thr(3ξ)]-NH2; disulfide 2-7) | monodisperse peptide nanotubes and 15.3 nm monodisperse nanotube |
| ≤ 0.005 | ≤ 0.1 | CC(C)[C@@H]1NC(=O)[C@H](CCCCN)NC(=O)[C@@H](Cc2cccc(F)c2)NC(=O)[C@H](Cc2ccc(O)cc2)NC(=O)[C@@H](NC(=O)[C@H](N)Cc2ccc3ccccc3c2)CSSC[C@@H](C(=O)N[C@H](C(N)=O)C(C)O)NC1=O (stereo partly drawn) [Example 15, H-D-2-Nal^1-cyclo(Cys^2-Tyr^3-m-F-D-Phe^4-Lys^5-Val^6-Cys^7)-Thr^8-NH2.2 CH3COOH] (H-[d2Nal]CY[dPhe(3-F)]KVC[Thr(3ξ)]-NH2; disulfide 2-7) | monodisperse peptide nanotubes and 15.6 nm monodisperse nanotube |
| ≤ 0.005 | ≤ 1 | CC(C)[C@@H]1NC(=O)[C@H](CCCCN)NC(=O)[C@@H](Cc2ccc(O)cc2)NC(=O)[C@H](Cc2ccc(O)cc2)NC(=O)[C@@H](NC(=O)[C@H](N)Cc2ccc3ccccc3c2)CSSC[C@@H](C(=O)N[C@H](C(N)=O)C(C)O)NC1=O (stereo partly drawn) [Example 14, H-D-2-Nal^1-cyclo(Cys^2-Tyr^3-D-Tyr^4-Lys^5-Val^6-Cys^7)-Thr^8-NH2.2 CH3COOH] (H-[d2Nal]CY[dY]KVC[Thr(3ξ)]-NH2; disulfide 2-7) | monodisperse peptide nanotubes and 18 nm monodisperse nanotube |
| – | – | CC(C)[C@H]1NC(=O)[C@@H](CCCCN)NC(=O)[C@H](Cc2c[nH]c3ccccc23)NC(=O)[C@@H](Cc2ccc(O)cc2)NC(=O)[C@H](NC(=O)[C@@H](N)Cc2ccc3ccccc3c2)CSSC[C@H](C(=O)N[C@@H](C(N)=O)C(C)O)NC1=O (stereo partly drawn) [Example 23, H-2-Nal^1-cyclo(D-Cys^2-D-Tyr^3-Trp^4-D-Lys^5-D-Val^6-D-Cys^7)-D-Thr^8-NH2.2 CH3COOH] (H-[2Nal][dC][dY]W[dK][dV][dC][dThr(3ξ)]-NH2; disulfide 2-7) | 24.4 nm monodisperse nanotube |
